{"source": "PubChem BioAssay AID434987", "about": "(Southern Research Specialized Biocontainment Screening …, 2010)", "system": "M. tuberculosis H37Rv growth inhibition with meropenem", "experiment": "dose response, H37Rv, with and without meropenem (AID 434987);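 note: growth over 7 days at 37 °C before Alamar Blue read on day 9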", "key": {"[1]": {"details": "M. tuberculosis H37Rv growth inhibition, measured here: IC50 without meropenem"}, "[2]": {"details": "M. tuberculosis H37Rv growth inhibition, measured here: IC90 without meropenem"}, "[3]": {"details": "measured here: IC90 with meropenem"}}, "note": "pIC50: −log10 of the molar value. Activity calls are given as the source filed them. The rule behind the calls is not given here."}
{"smiles": "CC(C)(C)c1nn(-c2ccccc2)c2[nH]c(=O)c(CNc3ccc4c(c3)OCCO4)cc12", "values": [{"measurement": "IC50", "result": "91.2 µM (inactive)"}, {"measurement": "pIC50", "setting": "[1]", "result": 4.05}, {"measurement": "IC90", "setting": "[2]", "result": "> 100", "unit": "µM"}, {"measurement": "IC90", "setting": "[3]", "result": 99.7, "unit": "µM"}]}
{"smiles": "CCc1cc2c(Sc3nc4ccccc4s3)ncnc2s1", "values": [{"measurement": "IC50", "result": "50.6 µM (inactive)"}, {"measurement": "pIC50", "setting": "[1]", "result": 4.05}, {"measurement": "IC90", "setting": "[2]", "result": "> 100", "unit": "µM"}, {"measurement": "IC90", "setting": "[3]", "result": "> 100", "unit": "µM"}]}
{"smiles": "CC1(C)CN=C(Nc2nc3ccccc3s2)S1", "values": [{"measurement": "pIC50", "result": 4.54}, {"measurement": "pIC50", "setting": "[1]", "result": "< 4.00"}, {"measurement": "IC90", "setting": "[2]", "result": "> 100", "unit": "µM"}, {"measurement": "IC90", "setting": "[3]", "result": "> 50", "unit": "µM"}]}
{"smiles": "O=C(Nc1ccc(C(F)(F)F)cc1)c1cc(-c2cccnc2)nc2ccc(Br)cc12", "values": [{"measurement": "IC50", "result": "> 100 µM (inactive)"}, {"measurement": "pIC50", "setting": "[1]", "result": "< 4.00"}, {"measurement": "IC90", "setting": "[2]", "result": "> 100", "unit": "µM"}, {"measurement": "IC90", "setting": "[3]", "result": "> 100", "unit": "µM"}]}
{"smiles": "CCn1c(=O)n(CC)c2cc(N3CCCC3)c(NC(=O)c3cc(Br)ccc3OC)cc21", "values": [{"measurement": "IC50", "result": "> 100 µM (inactive)"}, {"measurement": "pIC50", "setting": "[1]", "result": "< 4.00"}, {"measurement": "IC90", "setting": "[2]", "result": "> 100", "unit": "µM"}, {"measurement": "IC90", "setting": "[3]", "result": "> 100", "unit": "µM"}]}
{"smiles": "C=CCNC1=C(Cl)C(=O)N(c2cccc(Cl)c2Cl)C1=O", "values": [{"measurement": "pIC50", "result": 4.86}, {"measurement": "pIC50", "setting": "[1]", "result": 4.33}, {"measurement": "IC90", "setting": "[2]", "result": "> 100", "unit": "µM"}, {"measurement": "IC90", "setting": "[3]", "result": 30.2, "unit": "µM"}]}
{"smiles": "CCOc1ccc(S(=O)(=O)n2nnc3ccccc32)cc1C(C)C", "values": [{"measurement": "IC50", "result": "> 100 µM (inactive)"}, {"measurement": "pIC50", "setting": "[1]", "result": "< 4.00"}, {"measurement": "IC90", "setting": "[2]", "result": "> 100", "unit": "µM"}, {"measurement": "IC90", "setting": "[3]", "result": "> 100", "unit": "µM"}]}
{"smiles": "Cc1ccc(OCC(=O)Nc2ccc(-c3nc4ncccc4o3)cc2)c(C)c1", "values": [{"measurement": "IC50", "result": "> 100 µM (inactive)"}, {"measurement": "pIC50", "setting": "[1]", "result": "< 4.00"}, {"measurement": "IC90", "setting": "[2]", "result": "> 100", "unit": "µM"}, {"measurement": "IC90", "setting": "[3]", "result": "> 100", "unit": "µM"}]}
{"smiles": "COc1cc(NC(=S)NC(=O)c2ccco2)ccc1NC(=O)C(C)C", "values": [{"measurement": "IC50", "result": "99.6 µM (inactive)"}, {"measurement": "pIC50", "setting": "[1]", "result": "< 4.00"}, {"measurement": "IC90", "setting": "[2]", "result": "> 100", "unit": "µM"}, {"measurement": "IC90", "setting": "[3]", "result": "> 100", "unit": "µM"}]}
{"smiles": "S=c1[nH]cnc2scc(-c3ccc(Br)cc3)c12", "values": [{"measurement": "pIC50", "result": 4.54}, {"measurement": "pIC50", "setting": "[1]", "result": 4.01}, {"measurement": "IC90", "setting": "[2]", "result": "> 100", "unit": "µM"}, {"measurement": "IC90", "setting": "[3]", "result": "> 100", "unit": "µM"}]}
{"smiles": "CC1CCc2nc(NC(=O)C3COc4ccccc4O3)sc2C1", "note": "(stereo unspecified)", "values": [{"measurement": "IC50", "result": "26.2 µM (inactive)"}, {"measurement": "pIC50", "setting": "[1]", "result": 4.29}, {"measurement": "IC90", "setting": "[2]", "result": "> 100", "unit": "µM"}, {"measurement": "IC90", "setting": "[3]", "result": "> 100", "unit": "µM"}]}
{"smiles": "CCOC(=O)c1c(C)[nH]c(N=Nc2ccccc2Cl)c1C", "values": [{"measurement": "IC50", "result": "32.4 µM (inactive)"}, {"measurement": "pIC50", "setting": "[1]", "result": 4.20}, {"measurement": "IC90", "setting": "[2]", "result": "> 100", "unit": "µM"}, {"measurement": "IC90", "setting": "[3]", "result": "> 100", "unit": "µM"}]}
{"smiles": "N#CC1=C2C=Cc3ccccc3N2CCCC1=O", "values": [{"measurement": "pIC50", "result": 4.67}, {"measurement": "pIC50", "setting": "[1]", "result": 4.03}, {"measurement": "IC90", "setting": "[2]", "result": "> 100", "unit": "µM"}, {"measurement": "IC90", "setting": "[3]", "result": "> 100", "unit": "µM"}]}
{"smiles": "CCCC(=O)N1CCN(c2ccc(NC(=S)NC(=O)CC)cc2)CC1", "values": [{"measurement": "IC50", "result": "62.1 µM (inactive)"}, {"measurement": "pIC50", "setting": "[1]", "result": "< 4.00"}, {"measurement": "IC90", "setting": "[2]", "result": "> 100", "unit": "µM"}, {"measurement": "IC90", "setting": "[3]", "result": "> 100", "unit": "µM"}]}
{"smiles": "Nc1c(Cl)cc(-c2csc(N3CCCC3c3nc4cc(Cl)c(N5CCCCC5)cc4n3CCCO)n2)cc1Cl", "note": "(stereo unspecified)", "values": [{"measurement": "IC50", "result": "97.3 µM (inactive)"}, {"measurement": "pIC50", "setting": "[1]", "result": "< 4.00"}, {"measurement": "IC90", "setting": "[2]", "result": "> 100", "unit": "µM"}, {"measurement": "IC90", "setting": "[3]", "result": "> 100", "unit": "µM"}]}
{"smiles": "O=C(NCc1ccc2c(c1)OCO2)Nc1ccc2ccccc2c1", "values": [{"measurement": "IC50", "result": "78.3 µM (inactive)"}, {"measurement": "pIC50", "setting": "[1]", "result": "< 4.00"}, {"measurement": "IC90", "setting": "[2]", "result": "> 100", "unit": "µM"}, {"measurement": "IC90", "setting": "[3]", "result": "> 100", "unit": "µM"}]}
{"smiles": "Cc1nn(-c2ccccc2)cc1/C=N/NC(N)=S", "values": [{"measurement": "pIC50", "result": 5.43}, {"measurement": "pIC50", "setting": "[1]", "result": "< 4.00"}, {"measurement": "IC90", "setting": "[2]", "result": "> 100", "unit": "µM"}, {"measurement": "IC90", "setting": "[3]", "result": "> 100", "unit": "µM"}]}
{"smiles": "NC(=O)Nc1ccc(C(=O)OCC(=O)Nc2ccc(Cl)cn2)cc1", "values": [{"measurement": "IC50", "result": "> 100 µM (inactive)"}, {"measurement": "pIC50", "setting": "[1]", "result": "< 4.00"}, {"measurement": "IC90", "setting": "[2]", "result": "> 100", "unit": "µM"}, {"measurement": "IC90", "setting": "[3]", "result": "> 100", "unit": "µM"}]}
{"smiles": "NCCS", "values": [{"measurement": "IC50", "result": "> 100 µM (inactive)"}, {"measurement": "pIC50", "setting": "[1]", "result": "< 4.00"}, {"measurement": "IC90", "setting": "[2]", "result": "> 100", "unit": "µM"}, {"measurement": "IC90", "setting": "[3]", "result": "> 100", "unit": "µM"}]}
{"smiles": "COc1ccc(/C=N\\NC(=O)c2sc(N)nc2C)cc1OC", "values": [{"measurement": "IC50", "result": "> 100 µM (inactive)"}, {"measurement": "pIC50", "setting": "[1]", "result": "< 4.00"}, {"measurement": "IC90", "setting": "[2]", "result": "> 100", "unit": "µM"}, {"measurement": "IC90", "setting": "[3]", "result": "> 100", "unit": "µM"}]}
{"smiles": "Cc1ccc(C(=O)Nc2nc3ccccc3s2)s1", "values": [{"measurement": "IC50", "result": "43.6 µM (inactive)"}, {"measurement": "pIC50", "setting": "[1]", "result": "< 4.00"}, {"measurement": "IC90", "setting": "[2]", "result": "> 100", "unit": "µM"}, {"measurement": "IC90", "setting": "[3]", "result": "> 100", "unit": "µM"}]}
{"smiles": "CCOC(=O)c1sc(NC(=O)Nc2ccc(Cl)cc2)cc1C", "values": [{"measurement": "IC50", "result": "> 100 µM (inactive)"}, {"measurement": "pIC50", "setting": "[1]", "result": "< 4.00"}, {"measurement": "IC90", "setting": "[2]", "result": "> 100", "unit": "µM"}, {"measurement": "IC90", "setting": "[3]", "result": "> 100", "unit": "µM"}]}
{"smiles": "Cc1c(C(=O)NC(=S)Nc2ccccc2N2CCCC2)cccc1[N+](=O)[O-]", "values": [{"measurement": "IC50", "result": "63.5 µM (inactive)"}, {"measurement": "pIC50", "setting": "[1]", "result": 4.08}, {"measurement": "IC90", "setting": "[2]", "result": "> 100", "unit": "µM"}, {"measurement": "IC90", "setting": "[3]", "result": "> 100", "unit": "µM"}]}
{"smiles": "COc1cc(NC(=O)c2ccc(CNc3c(N4CCCC4)c(=O)c3=O)cc2)cc(OC)c1OC", "values": [{"measurement": "pIC50", "result": 4.62}, {"measurement": "pIC50", "setting": "[1]", "result": "< 4.00"}, {"measurement": "IC90", "setting": "[2]", "result": "> 100", "unit": "µM"}, {"measurement": "IC90", "setting": "[3]", "result": "> 100", "unit": "µM"}]}
